Source: US20250312469A1 (CANGET BIOTEKPHARMA, priority 2024, published 2025)
“And” between values parts separate entries of the source, which are not always exact repeats. Equal values may be shown once.

Legend:
TA100 = assay: Ames Bacterial Reverse Mutation Assay
in vivo = conditions: female, SCID, mouse; for Tmax / half-life: po
DDX5 = DDX5 (Homo sapiens, UniProt P17844); assay: Isothermal titration calorimetry (ITC), Flag-DDX5; type: binding; conditions: from ITC KD
[1] = tested on: LNCaP, DU145 and PC-3 cells; assay: MTT cell growth/viability assay in PCa cells; type: cell-based, human
Experimental: MTT assay for determining cancer cell growth viability: The MTT assay was described previously (13). […] Briefly, ˜2500 viable cells with or without genetic manipulation were plated in each well in 96-well plates. […] MTT, a colorimetric substrate, was then added to a final concentration of 0.4 mg/mL to each well. Cells in 96-well plates were further incubated in a 5% CO2 incubator at 37° C. for 4 h, and then the medium was aspirated. The MTT metabolic product formazan was solubilized by adding 200 μl of DMSO to each well. Absorbance in the relevant wells was measured at 570 nm using an Ultra Microplate Reader (Bio-Tek Instruments).

in vitro = conditions: for microsomal CLint at 0.5 μM / half-life at 0.5 μM: both; for microsomal CLint at 0.5 μM: s9, CLint (intrinsic clearance); for microsomal CLint at 0.5 μM / half-life at 0.5 μM / % Remaining of Initial (n = 1): human liver S9 fraction; for half-life at 0.5 μM: s9, Half-life (min)
Panc-1 and BxPC-3 cells = assay: Cell attachment after FL118 pretreatment; type: cell-based, human; conditions: 24 h pretreatment, reseeded
Experimental: The harvested cells were then reseeded at an expected 30-60% confluence if all cell attached to the cell cultural dish. […] Representative cell attachment images were taken 4-16 hours dependent on control cell attachment speed after cell seeding. Quantitative analysis of non-attached cell numbers was documented in parallel for each condition.

ABCG2/BCRP = target: T1, ABCG2/BCRP (Homo sapiens, UniProt Q9UNQ0); assay: in vitro; conditions: for recovery at 120 min, 1 µM: Caco-2, pH 7.4, Recovery (%)
T1 sequence (Q9UNQ0 1-655): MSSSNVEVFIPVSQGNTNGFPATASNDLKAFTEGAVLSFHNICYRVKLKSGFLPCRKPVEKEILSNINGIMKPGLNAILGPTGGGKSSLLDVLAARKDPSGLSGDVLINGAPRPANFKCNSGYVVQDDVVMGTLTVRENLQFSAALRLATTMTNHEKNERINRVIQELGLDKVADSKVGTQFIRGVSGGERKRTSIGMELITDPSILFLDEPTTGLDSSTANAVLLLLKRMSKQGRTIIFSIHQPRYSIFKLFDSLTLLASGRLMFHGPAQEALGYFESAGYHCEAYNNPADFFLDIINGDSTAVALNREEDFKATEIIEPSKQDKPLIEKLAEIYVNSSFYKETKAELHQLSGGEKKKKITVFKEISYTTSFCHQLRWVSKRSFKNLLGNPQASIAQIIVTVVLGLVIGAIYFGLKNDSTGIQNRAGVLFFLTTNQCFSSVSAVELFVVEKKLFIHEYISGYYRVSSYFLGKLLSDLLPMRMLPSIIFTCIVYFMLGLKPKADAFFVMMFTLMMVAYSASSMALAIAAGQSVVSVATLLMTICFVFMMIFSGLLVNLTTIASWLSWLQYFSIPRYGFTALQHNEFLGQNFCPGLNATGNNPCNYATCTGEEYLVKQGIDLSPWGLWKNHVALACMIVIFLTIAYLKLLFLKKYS

[2] = FL118 drug substance chemical stability (HPLC)
Hepatocyte stability = conditions: for hepatocyte CLint at 0.5 μM / half-life at 0.5 μM: both, human, hepatocytes; for hepatocyte CLint at 0.5 μM: pH 7.4, Clint (intrinsic clearance); for hepatocyte CLint at 0.5 μM / half-life at 0.5 μM / % Remaining: cryopreserved human hepatocytes; for half-life at 0.5 μM: pH 7.4, Half-life
TA97a = assay: Ames Bacterial Reverse Mutation Assay; conditions: for Background Lawn Code / Colony Counts Average / Colony Counts Replicate 1-3: TA97a
CRPC LAPC9 tumors = assay: LAPC9 CRPC tumor model; type: in vivo, SCID mice; conditions: 8 mg/kg orally once per week, 2 times
[3] = tested on: LAPC9-AI vs. LAPC9-AD cells; assay: LAPC9 organoid assay; type: cell-based

DDX5, sequence (P17844 whole entry): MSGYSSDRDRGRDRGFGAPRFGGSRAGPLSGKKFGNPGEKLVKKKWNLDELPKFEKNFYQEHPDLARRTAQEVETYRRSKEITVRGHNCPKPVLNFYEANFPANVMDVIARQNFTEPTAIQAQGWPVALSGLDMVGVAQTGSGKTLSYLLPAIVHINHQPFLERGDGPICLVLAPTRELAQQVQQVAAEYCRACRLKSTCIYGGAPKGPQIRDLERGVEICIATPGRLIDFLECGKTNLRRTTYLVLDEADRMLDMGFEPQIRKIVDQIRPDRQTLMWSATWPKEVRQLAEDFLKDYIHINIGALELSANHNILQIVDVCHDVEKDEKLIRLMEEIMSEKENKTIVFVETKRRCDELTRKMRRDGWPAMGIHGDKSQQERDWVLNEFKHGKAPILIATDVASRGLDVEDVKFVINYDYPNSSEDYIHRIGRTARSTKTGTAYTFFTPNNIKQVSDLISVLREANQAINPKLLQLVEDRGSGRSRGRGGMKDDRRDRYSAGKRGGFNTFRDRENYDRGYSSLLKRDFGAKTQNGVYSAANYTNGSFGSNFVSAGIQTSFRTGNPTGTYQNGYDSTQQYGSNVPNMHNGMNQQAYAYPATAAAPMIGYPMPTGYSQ

SMILES: CCC1(O)C(=O)OCc2c1cc1n(c2=O)Cc2cc3cc4c(cc3nc2-1)OCO4 (stereo not shown) [FL118]
- bacterial strain mutation (TA100): does not induce
- mean revertant colonies over negative control (TA100; +/− S9): less than 2 fold
- Background Lawn Code (TA100; TA100, 0.010 μM +S9): 1
- Colony Counts Average (TA100; TA100, 0.010 μM +S9): 92
- Colony Counts Replicate 1-3 (TA100; TA100, 0.010 μM +S9): 101 and 96 and 79
- Background Lawn Code (TA100; TA100, 0.010 μM −S9): 1
- Colony Counts Average (TA100; TA100, 0.010 μM −S9): 77
- Colony Counts Replicate 1-3 (TA100; TA100, 0.010 μM −S9): 72 and 79 and 80
- Background Lawn Code (TA100; TA100, 0.10 μM +S9): 1
- Colony Counts Average (TA100; TA100, 0.10 μM +S9): 89
- Colony Counts Replicate 1-3 (TA100; TA100, 0.10 μM +S9): 96 and 74 and 98
- Background Lawn Code (TA100; TA100, 0.10 μM −S9): 1
- Colony Counts Average (TA100; TA100, 0.10 μM −S9): 87
- Colony Counts Replicate 1-3 (TA100; TA100, 0.10 μM −S9): 89 and 77 and 94
- Background Lawn Code (TA100; TA100, 1.0 μM +S9): 1
- Colony Counts Average (TA100; TA100, 1.0 μM +S9): 99
- Colony Counts Replicate 1-3 (TA100; TA100, 1.0 μM +S9): 105 and 106 and 87
- Background Lawn Code (TA100; TA100, 1.0 μM −S9): 1
- Colony Counts Average (TA100; TA100, 1.0 μM −S9): 83
- Colony Counts Replicate 1-3 (TA100; TA100, 1.0 μM −S9): 94 and 75 and 81
- Tmax (in vivo; HT29 tumor): 1 h
- half-life (in vivo; HT29 tumor): 4.24 h
- Tmax (in vivo; SW620 tumor): 1 h
- half-life (in vivo; SW620 tumor): 2.99 h
- bioavailability (in vivo; plasma, oral): 84.6%
- Tmax (in vivo; plasma): 0.5 h
- half-life (in vivo; plasma): 5.12 h
- FL118 binding to DDX5 versus Top1 (times stronger) (DDX5): about 10
- cell growth inhibition in DDX5 KO DU145 cells ([1]; 72h MTT): significantly increased resistance to FL118 treatment
- cell growth inhibition, DU145 vs LNCaP and PC-3 ([1]; 72h MTT): higher sensitivity to FL118-induced cell growth inhibition
- cell growth inhibition with USP2a overexpression ([1]; LNCaP, DU145, 72 h): enhances FL 118-mediated inhibition of PCa cell growth
- microsomal CLint at 0.5 μM (in vitro; human, calculated (in parentheses)): 11.1 µL/min/mg
- microsomal CLint at 0.5 μM (in vitro; human, bound): < 11.6 µL/min/mg
- half-life at 0.5 μM (in vitro; human, calculated (in parentheses), calculated half-life longer than the experiment): 1.05 h
- half-life at 0.5 μM (in vitro; human, expressed as > the longest incubation time): > 1 h
- % Remaining of Initial (n = 1) (in vitro; 0 min): 100%
- % Remaining of Initial (n = 1) (in vitro; 10 min): 82%
- % Remaining of Initial (n = 1) (in vitro; 20 min): 73%
- % Remaining of Initial (n = 1) (in vitro; 30 min): 69%
- % Remaining of Initial (n = 1) (in vitro; 60 min): 52%
- half-life (in vitro; human, s9): long half-life
- cell attachment (Panc-1 and BxPC-3 cells): exhibited cell attachment defect
- Papp A→B at 120 min, 1 μM (ABCG2/BCRP; Caco-2, pH 7.4, Papp AVG, Caco-2, A-to-B, first FL118 entry (without Ko143)): 10.7 ×10⁻⁶ cm/s
- Papp A→B at 120 min, 1 μM (ABCG2/BCRP; Caco-2, pH 7.4, Papp R1, Caco-2, A-to-B, first FL118 entry (without Ko143)): 11.2 ×10⁻⁶ cm/s
- Papp A→B at 120 min, 1 μM (ABCG2/BCRP; Caco-2, pH 7.4, Papp R2, Caco-2, A-to-B, first FL118 entry (without Ko143)): 10.3 ×10⁻⁶ cm/s
- recovery at 120 min, 1 µM (ABCG2/BCRP; Caco-2, A-to-B, first FL118 entry (without Ko143)): 57%
- recovery at 120 min, 1 µM (ABCG2/BCRP; Caco-2, A-to-B, second FL118 entry (presumably with Ko143)): 57%
- recovery at 120 min, 1 µM (ABCG2/BCRP; Caco-2, B-to-A, second FL118 entry (presumably with Ko143)): 66%
- Hygroscope [2]: 0.07% and 0.20% and 0.38%
- purity and impurity retest [2]: still well passing the purity and impurity requirement
- half-life (Hepatocyte stability; 0.5 μM): long half-life
- hepatocyte CLint at 0.5 μM (Hepatocyte stability; calculated (in parentheses)): 2.96 µL/min/1e6 cells
- hepatocyte CLint at 0.5 μM (Hepatocyte stability; bound): < 3.85 µL/min/1e6 cells
- half-life at 0.5 μM (Hepatocyte stability; calculated (in parentheses), calculated half-life longer than the experiment): 2.6 h
- half-life at 0.5 μM (Hepatocyte stability; expressed as > the longest incubation time (120 min)): > 2 h
- % Remaining (Hepatocyte stability; 0 min): 100%
- % Remaining (Hepatocyte stability; 15 min): 79%
- % Remaining (Hepatocyte stability; 30 min): 71%
- % Remaining (Hepatocyte stability; 60 min): 66%
- % Remaining (Hepatocyte stability; 120 min): 58%
- bacterial strain mutation (TA97a): does not induce
- mean revertant colonies over negative control (TA97a; +/− S9): less than 2 fold
- Background Lawn Code (TA97a; 0.010 μM +S9): 1
- Colony Counts Average (TA97a; 0.010 μM +S9): 141
- Colony Counts Replicate 1-3 (TA97a; 0.010 μM +S9): 123 and 140 and 161
- Background Lawn Code (TA97a; 0.010 μM −S9): 1
- Colony Counts Average (TA97a; 0.010 μM −S9): 101
- Colony Counts Replicate 1-3 (TA97a; 0.010 μM −S9): 108 and 105 and 90
- Background Lawn Code (TA97a; 0.10 μM +S9): 1
- Colony Counts Average (TA97a; 0.10 μM +S9): 172
- Colony Counts Replicate 1-3 (TA97a; 0.10 μM +S9): 189 and 150 and 178
- Background Lawn Code (TA97a; 0.10 μM −S9): 1
- Colony Counts Average (TA97a; 0.10 μM −S9): 95
- Colony Counts Replicate 1-3 (TA97a; 0.10 μM −S9): 116 and 87 and 82
- Background Lawn Code (TA97a; 1.0 μM +S9): 1
- Colony Counts Average (TA97a; 1.0 μM +S9): 142
- Colony Counts Replicate 1-3 (TA97a; 1.0 μM +S9): 140 and 146 and 139
- Background Lawn Code (TA97a; 1.0 μM −S9): 1
- Colony Counts Average (TA97a; 1.0 μM −S9): 119
- Colony Counts Replicate 1-3 (TA97a; 1.0 μM −S9): 111 and 113 and 134
- antitumor efficacy (CRPC LAPC9 tumors): sensitive to FL118
- toxicity to AR−/lo LAPC9-AI vs AR+ LAPC9-AD cells [3]: selective toxicity
